Tests used:
[1] = biological target: T1, hM4Di (Homo sapiens, UniProt P08173, A203G/Y113C); experiment: FLIPR Ca2+ oscillation assay in primary rat neuronal cultures transduced with hM4Di; format: cell-based
T1 construct: expressed in transfected cells; host or cells: primary cortical neurons of embryonic (E18) Sprague-Dawley rats, AAV-transduced
T1 sequence (P08173 1-479 Y113C/A203G): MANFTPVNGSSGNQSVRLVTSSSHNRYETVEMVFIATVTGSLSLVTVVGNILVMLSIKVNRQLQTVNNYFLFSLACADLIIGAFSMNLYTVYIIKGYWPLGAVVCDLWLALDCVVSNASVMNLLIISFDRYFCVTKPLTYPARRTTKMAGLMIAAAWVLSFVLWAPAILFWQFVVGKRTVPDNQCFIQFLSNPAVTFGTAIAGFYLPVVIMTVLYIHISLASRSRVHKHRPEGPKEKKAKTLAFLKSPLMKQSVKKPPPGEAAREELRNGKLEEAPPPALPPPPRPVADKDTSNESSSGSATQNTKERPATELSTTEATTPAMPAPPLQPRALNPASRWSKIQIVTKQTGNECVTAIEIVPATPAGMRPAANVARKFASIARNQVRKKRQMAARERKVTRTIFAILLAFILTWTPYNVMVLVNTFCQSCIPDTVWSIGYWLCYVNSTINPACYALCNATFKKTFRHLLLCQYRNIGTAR
Method: Briefly, cortices were dissected from embryonic brains, meninges were removed, and cortices transferred into ice-cold dissociation buffer (2 mM kynurenic acid, 10 mM HEPES, 20 mM MgCl2 (Fluka, Germany) and 33.4 mM Glucose in Hank’s Balanced Salt Solution (HBSS), pH 7.4 (Gibco, Thermo Fischer Scientific, Massachusetts, USA). Cortices were then dissociated in 20 units/ml papain solution (5.5 mM L- Cysteine hydrochloride, 1.1 mM ethylenediamine tetra-acetic acid [EDTA], 0.067 mM 2-Mercaptoethanol in Minimum Essential Medium [MEM]) for 15 min at 37 °C. Cortices were washed twice by adding 20 ml plating medium (1:50 foetal calve serum, 1:100 penicillin/streptomycin and 1:100 GlutaMax in MEM) followed by cell filtration using a 70 µm cell strainer (Corning, model #352350, Merck, Germany) to obtain a single-cell suspension. Dissociated cells were re-suspended in serum-free Neurobasal medium with Glutamax and B27 supplement (Gibco) and plated on PDL-coated 96 MTPs (Corning #356640). Virus (ssAAV-1/2-hSyn1-hM4D[Gi]_mCherry-WPRE-hGHp[A]) transduction was performed immediately after plating. Cells were maintained at 37 °C (5% CO2 and 10% O2) in a humidified incubator. A half feed medium change was done on DIV8. Final assay conditions used for evaluating activity of compounds were 0.95 × 10^5 cells/cm^2, transduced with 10.000 multiplicity of infection and measured on DIV9.
Medium was removed and cells were incubated in assay buffer (HBSS, Gibco, 10 mM HEPES, pH 7.4) containing 4 µM Fluo-4AM (Thermo Fischer Scientific) and 0.1% Pluronic F-127 (Thermo Fischer Scientific #P3000MP) for 1 h at room temperature in the dark. Loading buffer was then replaced with assay buffer. After 10 min, assay plates were measured in the FLIPR tetra (Molecular Devices, California, USA) using green fluorescence filter settings (excitation 470–495 nm, emission 515–575 nm). Fluorescence signals were recorded at 1 s intervals (0.4 s exposure time). Compound addition was automated in a single addition protocol. Tested compounds (concentrations:0.3 nM–1 µM; retigabine at 30 µM) were added after recording a baseline response for 5 min followed by another 5 min for recording compound effects on Ca^2+ oscillations. Each compound dose was repeated on three individual plates in duplicates.
Time-series raw fluorescence traces recorded from the FLIPR assay were analysed by detecting Ca^2+ peaks based on a fixed amplitude threshold[19]. The change in oscillation frequency was determined by counting the number of peaks in a defined time interval (5 min) before and after addition of the tested compound and calculating the Ca^2+ oscillations frequency from their number. […] For visualisation, all data were transferred to GraphPad Prism 7 (Graphpad Software, Inc., CA, USA).

[2] = biological target: human M4 muscarinic receptor (Homo sapiens, UniProt P08173); experiment: Potency at parent receptor of hM4Di; format: cell-based; conditions: data not shown
[3] = tested on: C57BL/6 J mice; experiment: 5-choice serial-reaction-time task (5-CSRTT), unspecific behavioural effects; format: in vivo
Method: Training was performed in 16 standard mouse Bussey-Saksida touchscreen chambers (model #80614, Campden Instruments Ltd., UK), previously described in detail. In short, each trapezoidal operant chamber was placed in a sound- and light- attenuating box individually equipped with a house light, a reward magazine with light, a liquid reward dispenser, a sound generator, a perforated stainless steel floor, and a touchscreen placed at the wide end of the chamber and covered permanently by a black acrylic glass 5-hole mask. The reward magazine, located opposite the touchscreen, was connected to a liquid dispenser delivering strawberry milk (Yazoo®). Infrared break-beam sensors located inside and on the front of the food magazine as well as on the touch-screen walls allowed the detection of reward delivery and the animal’s locomotor activity, respectively. Four individual chambers were connected to one computer for controlling the task flow using the graphical task design software ABET II Touch (model #89505, Campden Instruments Ltd., UK) and the WhiskerServer software (Cambridge University Technical Services Ltd., UK)[27].
Mice were habituated to the chambers for three consecutive 20-min sessions during which the house light and magazine light were permanently on. At the start of each session, 30 µl strawberry milk was delivered. Every 15 s after head entry into the magazine, an additional 30 µl strawberry milk was delivered. Head entry turned the magazine light off.
The 5-CSRTT training protocol, originally designed for rats[28], was similar as that previously described for mice[29]–[31]. The training comprised six stages with 30-min sessions initiated by the illumination of the house and magazine lights and delivery of 20 µl strawberry milk. Collection of the reward switched the magazine light off and started the first trial.
In the first stage, the middle window was permanently illuminated, which was turned off when touched, followed by reward delivery (20 µl) with illumination of the magazine light. Head entry switched off the magazine light. Mice performing 30 trials in a session continued to the next stage. Training sessions in stages 2–6 comprised a maximum of 120 trials. Collection of the reward initiated the inter-trial interval (ITI) followed by the illumination of one pseudo-randomly selected aperture for a fixed stimulus duration (SD). Any touch to the screen during the ITI was classified as a premature response which was not counted as a trial and terminated the current trial. Following stimulus detection, a nose poke to the corresponding aperture within a fixed time interval (limited hold; LH) was required for reward delivery. Premature responses made during the ITI, incorrect responses, and the omission of a response within the LH led to a timeout (TO, house light switched off for 4 s) instead of delivery of reward. Correct, incorrect and omitted responses defined the total number of trials. […] The criteria to pass the last stage and reach baseline performance were to complete >30 correct trials, with ≥80% accuracy and ≤30% omissions. Percentage accuracy was defined as the number of correct trials divided by the sum of correct and incorrect trials. Percentage omissions were calculated in terms of the number of completed trials. Premature responding was calculated as a percentage of completed trials. Perseveration was calculated as the number of additional responses made in the same aperture following a correct response. Additionally, the correct-response latency (time from stimulus presentation to correct response) and reward latency (time from correct response to reward collection) were measured across all trials.
Either one or up to three days before, as well as one day after the task challenge, mice were trained at baseline conditions to check for any unexpected changes in task performance (e.g. by long lasting drug- or challenge-induced effects). […]

[4] = biological target: T2, α1A adrenoreceptor (Homo sapiens, UniProt P35348); experiment: Off-target radioligand binding; conditions: 10 μM compound
T2 construct: expressed in transfected cells; host or cells: HEK-293 or CHO

[5] = biological target: T3, α2A adrenoreceptor (Homo sapiens, UniProt P08913); experiment: Off-target radioligand binding; conditions: 10 μM compound
T3 construct: expressed in transfected cells; host or cells: HEK-293 or CHO

[6] = biological target: T4, D1 dopamine receptor (Homo sapiens, UniProt P21728); experiment: Off-target radioligand binding; conditions: 10 μM compound
T4 construct: expressed in transfected cells; host or cells: HEK-293 or CHO

[7] = biological target: T5, D2 dopamine receptor (Homo sapiens, UniProt P14416); experiment: Off-target radioligand binding; conditions: 10 μM compound
T5 construct: expressed in transfected cells; host or cells: HEK-293 or CHO

[8] = biological target: T6, 5-HT2B serotonin receptor (Homo sapiens, UniProt P41595); experiment: Off-target radioligand binding
T6 construct: expressed in transfected cells; host or cells: HEK-293 or CHO

[9] = biological target: COX2 (Homo sapiens, UniProt P35354); experiment: Off-target enzyme assay; format: biochemical; conditions: 10 μM compound, not shown
[10] = biological target: PDE4D2 (Homo sapiens, UniProt Q08499); experiment: Off-target enzyme assay; format: biochemical; conditions: 10 μM compound, not shown
[11] = biological target: Lck kinase (Homo sapiens, UniProt P06239); experiment: Off-target enzyme assay; format: biochemical; conditions: 10 μM compound, not shown
[12] = tested on: hM3Dq; parameters: method as in PMID 25587888; conditions: FLIPR assay; cited from earlier work
[13] = Pharmacokinetics in plasma, CSF and cortical brain tissue after i.p. injection; conditions: mice; for mean concentration in brain: cortical tissue
Method: Blood (approximately 100 µl) was collected from the vena facialis in anaesthetised animals, followed by CSF sampling (approximately 10 µl) from the cisterna magna under pentobarbital anaesthesia (1:25 in saline, 10 ml/kg, i.p., Narcoren, Boehringer Ingelheim, Germany). Subsequently, the brain was removed and its anterior third (including the medial prefrontal and anterior cingulate cortices) dissected and transferred into Precellys tubes cooled in liquid nitrogen. For plasma extraction, blood was transferred to EDTA coated tubes and centrifuged for 10 min at 10,000 rpm at 4 °C. Maximal plasma concentration (Cmax), time taken to reach maximal plasma concentration (Tmax) and mean residence time were assessed using liquid chromatography–mass spectrometry analysis executed on the HP1200 (Agilent, CA, USA) coupled to the API 6500 (AB Sciex, Germany) using BI00001052 (Boehringer Ingelheim) as internal standard. In short, 5 µl of plasma or CSF sample were mixed with 10 nl internal standard. 70 µl acetonitrile (ACN)/methanol (1:1) was added, kept at −20 °C for 15 min and centrifuged for 4 min at 4000 rpm at 4 °C. 30 µl of the supernatant was mixed with 170 µl 0.1% formic acid. Brain homogenization was executed by Precellys Evolution (Bertin) after adding ACN/methanol (1:1)/aq.dest. (3:1) to each brain sample with a volume corresponding to 4 parts of the brain weight, followed by centrifugation for 1 min at 4000 rpm at 4 °C. 5 µl of the supernatant was mixed with 10 nl of internal standard.

[14] = 15 min after i.p. 3.5 mg/kg CNO
[15] = 30 min after i.p. 3.5 mg/kg CNO
[16] = 60 min after i.p. 3.5 mg/kg CNO

T6 sequence (P41595 whole entry): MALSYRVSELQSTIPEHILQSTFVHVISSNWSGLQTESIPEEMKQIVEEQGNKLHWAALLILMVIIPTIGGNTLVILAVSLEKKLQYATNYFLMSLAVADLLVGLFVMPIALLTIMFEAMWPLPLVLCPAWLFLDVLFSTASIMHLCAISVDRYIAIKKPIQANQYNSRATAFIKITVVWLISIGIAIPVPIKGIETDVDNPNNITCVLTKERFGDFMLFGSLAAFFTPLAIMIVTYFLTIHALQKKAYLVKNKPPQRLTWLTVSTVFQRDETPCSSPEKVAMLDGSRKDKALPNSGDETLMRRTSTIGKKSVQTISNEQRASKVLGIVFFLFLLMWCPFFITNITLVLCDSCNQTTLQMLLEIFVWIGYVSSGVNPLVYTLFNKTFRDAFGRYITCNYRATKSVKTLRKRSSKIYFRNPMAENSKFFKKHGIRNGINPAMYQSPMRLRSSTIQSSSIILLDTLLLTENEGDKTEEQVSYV
T2 sequence (P35348 whole entry): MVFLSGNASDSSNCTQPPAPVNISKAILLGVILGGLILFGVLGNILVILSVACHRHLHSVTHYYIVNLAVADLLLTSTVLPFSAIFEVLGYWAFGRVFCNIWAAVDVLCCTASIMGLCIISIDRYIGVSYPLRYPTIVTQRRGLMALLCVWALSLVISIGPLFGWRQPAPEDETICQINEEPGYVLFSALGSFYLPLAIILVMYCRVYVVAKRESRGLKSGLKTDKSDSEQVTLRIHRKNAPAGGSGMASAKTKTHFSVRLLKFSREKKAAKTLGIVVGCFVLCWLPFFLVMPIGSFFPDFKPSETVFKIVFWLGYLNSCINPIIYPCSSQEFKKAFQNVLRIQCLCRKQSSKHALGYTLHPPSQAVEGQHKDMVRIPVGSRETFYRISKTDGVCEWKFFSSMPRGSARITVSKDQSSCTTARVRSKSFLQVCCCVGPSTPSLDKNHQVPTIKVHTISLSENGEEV
Sequence of human M4 muscarinic receptor (P08173 whole entry): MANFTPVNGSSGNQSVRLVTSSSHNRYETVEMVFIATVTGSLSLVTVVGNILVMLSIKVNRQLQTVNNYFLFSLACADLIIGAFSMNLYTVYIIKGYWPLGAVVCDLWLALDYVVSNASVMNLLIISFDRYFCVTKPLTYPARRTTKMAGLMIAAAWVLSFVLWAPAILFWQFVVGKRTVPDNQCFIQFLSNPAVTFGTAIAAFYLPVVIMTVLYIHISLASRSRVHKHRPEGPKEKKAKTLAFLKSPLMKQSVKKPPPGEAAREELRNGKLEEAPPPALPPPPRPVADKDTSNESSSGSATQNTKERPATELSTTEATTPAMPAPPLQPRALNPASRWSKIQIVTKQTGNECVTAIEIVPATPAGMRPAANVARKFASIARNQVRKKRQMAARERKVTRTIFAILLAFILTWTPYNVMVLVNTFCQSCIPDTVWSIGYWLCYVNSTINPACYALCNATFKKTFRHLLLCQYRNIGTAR
Sequence of PDE4D2 (Q08499 303-809): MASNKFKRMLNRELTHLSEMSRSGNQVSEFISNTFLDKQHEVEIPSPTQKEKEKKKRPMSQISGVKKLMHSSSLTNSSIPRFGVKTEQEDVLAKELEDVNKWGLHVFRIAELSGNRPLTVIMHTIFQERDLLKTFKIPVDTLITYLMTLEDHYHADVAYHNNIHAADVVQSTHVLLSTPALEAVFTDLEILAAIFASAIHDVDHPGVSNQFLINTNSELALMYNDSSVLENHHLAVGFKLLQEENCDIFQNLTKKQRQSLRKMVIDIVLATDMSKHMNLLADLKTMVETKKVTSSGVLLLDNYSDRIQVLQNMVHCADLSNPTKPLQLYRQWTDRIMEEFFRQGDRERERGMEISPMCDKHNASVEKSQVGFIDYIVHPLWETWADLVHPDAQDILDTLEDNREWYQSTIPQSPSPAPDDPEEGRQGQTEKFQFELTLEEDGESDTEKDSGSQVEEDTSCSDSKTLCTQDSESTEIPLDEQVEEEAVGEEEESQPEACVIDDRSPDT
Sequence of Lck kinase (P06239 whole entry): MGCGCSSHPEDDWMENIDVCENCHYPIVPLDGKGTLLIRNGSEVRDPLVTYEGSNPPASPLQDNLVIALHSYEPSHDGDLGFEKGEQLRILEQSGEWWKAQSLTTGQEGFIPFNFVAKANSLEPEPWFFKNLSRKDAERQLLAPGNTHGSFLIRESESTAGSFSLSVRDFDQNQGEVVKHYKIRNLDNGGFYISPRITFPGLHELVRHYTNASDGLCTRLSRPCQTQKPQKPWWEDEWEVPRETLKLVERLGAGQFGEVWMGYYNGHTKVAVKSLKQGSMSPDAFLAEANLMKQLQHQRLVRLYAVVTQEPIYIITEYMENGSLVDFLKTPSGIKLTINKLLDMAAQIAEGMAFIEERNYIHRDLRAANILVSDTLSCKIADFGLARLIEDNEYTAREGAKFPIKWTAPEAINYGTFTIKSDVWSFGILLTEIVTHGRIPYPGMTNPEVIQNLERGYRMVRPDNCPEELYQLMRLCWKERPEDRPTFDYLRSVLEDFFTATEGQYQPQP
T4 sequence (P21728 whole entry): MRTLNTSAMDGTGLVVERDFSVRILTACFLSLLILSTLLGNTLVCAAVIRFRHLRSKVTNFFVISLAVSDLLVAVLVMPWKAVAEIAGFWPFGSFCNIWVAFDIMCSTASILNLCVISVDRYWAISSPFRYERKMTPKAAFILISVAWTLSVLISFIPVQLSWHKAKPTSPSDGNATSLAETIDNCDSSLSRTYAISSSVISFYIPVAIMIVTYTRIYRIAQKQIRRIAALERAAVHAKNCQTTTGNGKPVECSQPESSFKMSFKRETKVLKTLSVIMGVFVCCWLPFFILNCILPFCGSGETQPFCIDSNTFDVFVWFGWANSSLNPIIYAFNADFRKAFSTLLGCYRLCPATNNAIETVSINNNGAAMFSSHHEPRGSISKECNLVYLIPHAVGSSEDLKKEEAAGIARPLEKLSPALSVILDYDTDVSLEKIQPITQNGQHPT
Sequence of COX2 (P35354 18-604): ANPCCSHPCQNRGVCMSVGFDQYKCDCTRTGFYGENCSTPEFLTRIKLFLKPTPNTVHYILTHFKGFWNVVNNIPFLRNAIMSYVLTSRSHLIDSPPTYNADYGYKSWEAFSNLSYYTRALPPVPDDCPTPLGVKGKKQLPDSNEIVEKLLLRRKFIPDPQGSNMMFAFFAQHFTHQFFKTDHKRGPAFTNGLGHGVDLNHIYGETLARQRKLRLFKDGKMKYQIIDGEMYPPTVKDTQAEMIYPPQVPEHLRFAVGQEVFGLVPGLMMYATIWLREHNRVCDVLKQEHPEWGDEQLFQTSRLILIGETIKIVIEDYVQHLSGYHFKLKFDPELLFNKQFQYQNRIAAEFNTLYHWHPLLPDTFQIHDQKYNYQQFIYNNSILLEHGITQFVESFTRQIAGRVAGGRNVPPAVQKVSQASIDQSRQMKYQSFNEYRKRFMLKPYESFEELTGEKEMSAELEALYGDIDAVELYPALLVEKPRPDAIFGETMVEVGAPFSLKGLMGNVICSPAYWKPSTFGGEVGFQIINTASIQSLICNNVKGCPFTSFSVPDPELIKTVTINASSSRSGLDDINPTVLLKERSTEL
T5 sequence (P14416 1-414 isoform P14416-2): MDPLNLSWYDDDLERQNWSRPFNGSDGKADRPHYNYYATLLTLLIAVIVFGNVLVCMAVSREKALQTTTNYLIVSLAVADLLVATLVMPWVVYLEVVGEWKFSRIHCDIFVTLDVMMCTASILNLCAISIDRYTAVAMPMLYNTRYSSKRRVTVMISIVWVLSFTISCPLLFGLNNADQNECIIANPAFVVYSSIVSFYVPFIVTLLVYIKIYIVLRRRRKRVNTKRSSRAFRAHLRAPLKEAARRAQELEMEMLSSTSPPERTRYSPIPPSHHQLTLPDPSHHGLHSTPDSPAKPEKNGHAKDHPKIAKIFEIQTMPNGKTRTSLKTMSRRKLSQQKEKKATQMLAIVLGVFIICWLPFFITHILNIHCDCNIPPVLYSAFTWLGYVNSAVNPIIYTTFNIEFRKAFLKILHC
T3 sequence (P08913 whole entry): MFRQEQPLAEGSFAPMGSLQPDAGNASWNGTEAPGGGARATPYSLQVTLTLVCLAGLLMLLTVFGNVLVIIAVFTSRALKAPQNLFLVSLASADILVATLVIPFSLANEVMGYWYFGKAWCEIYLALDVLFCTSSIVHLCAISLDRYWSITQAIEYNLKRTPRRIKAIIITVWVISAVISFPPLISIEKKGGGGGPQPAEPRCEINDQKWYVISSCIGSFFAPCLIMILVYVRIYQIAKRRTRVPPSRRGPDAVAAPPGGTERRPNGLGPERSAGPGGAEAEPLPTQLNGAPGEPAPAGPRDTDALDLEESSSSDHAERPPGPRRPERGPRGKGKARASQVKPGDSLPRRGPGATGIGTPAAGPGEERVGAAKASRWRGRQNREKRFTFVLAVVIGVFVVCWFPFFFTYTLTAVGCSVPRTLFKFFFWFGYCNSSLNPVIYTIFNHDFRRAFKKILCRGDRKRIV

For `C[N+]1([O-])CCN(C2=Nc3cc(Cl)ccc3Nc3ccccc32)CC1` [CNO, clozapine-N-oxide], the “times less potent than CLZ at hM4Di” value ([1]; ratio of EC50 values) was ~20 times, the “times less potent than Cmpd-21 at hM4Di” value ([1]; ratio of EC50 values) was “approximately 2.7 times” and the EC50 ([1]; reduction of Ca2+ oscillation frequency, hM4Di-transduced rat primary neurons, Hill fit, read-out: half maximal effective concentration (EC50) at hM4Di) was 8.1 nM. The EC50 [2] was 6300 nM, the “behavioural changes in 5-CSRTT parameters” value ([3]; CNO 3.5 or 10 mg/kg i.p., 10 min before test, vs vehicle) was “did not produce any significant behavioural changes in most 5-CSRTT parameters” and the “number of perseverative responses” value ([3]; CNO highest dose (10 mg/kg) i.p.) was “not at the highest dose”. For the same molecule, the “number of perseverative responses” value ([3]; CNO intermediate dose (3.5 mg/kg) i.p., p = 0.0142) was “modest increase”, the “competitive inhibition of ligand binding” value [4] was “over 50%” and the “competitive inhibition of ligand binding” value [5] was “over 50%”. The “competitive inhibition of ligand binding” value [6] was “over 50%”, the “competitive inhibition of ligand binding” value [7] was “over 50%” and the “competitive inhibition of ligand binding” value ([8]; 10 μM compound) was “over 50%”. The Ki ([8]; bound stated in discussion) was < 100 nM, the inhibition [9] was < 20% and the inhibition [10] was < 20%. The inhibition [11] was < 20%, the EC50 [12] was 6 nM and the “brain concentration by linear extrapolation” value ([13]; 10 mg/kg CNO) was ≤ 70 nM. The “free (CSF) level by linear extrapolation” value ([13]; 10 mg/kg CNO) was ≤ 30 nM, the “mean CNO concentration as % of the CLZ concentration in plasma” value ([13]; 15 min after i.p. 1 mg/kg CLZ) was “approximately 1.1%” and the “mean concentration in CSF” value [13, 14] was 11.2 nM. The “mean concentration in CSF” value [13, 15] was 10.8 nM, the “free level (CSF)” value [13, 16] was ~4.05 nM and the “detection at all other time points and in the other sample types” value ([13]; after i.p. 1 mg/kg CLZ, other than plasma at 15 min) was “no CNO was detectable”. The “mean concentration in brain” value [13, 14] was 23.8 nM, the “mean concentration in brain” value [13, 15] was 18.5 nM and the “mean concentration in brain” value [13, 16] was “could not be detected”.

From article PMC6418145 (Scientific Reports, 2019)
